Experimental data published in PMC10223737, “Validation of Freshly Isolated Rat Renal Cells as a Tool for Preclinical Assessment of Radiolabeled Receptor-Specific Peptide Uptake in the Kidney” (Pharmaceuticals, 2023).
Where a SMILES comes first, the peptide text is derived from it. [ ]: non-standard residue; d: D form. The star is where a group is joined. DOTA = O=C(O)CN1CCN(CC(=O)O)CCN(CC(=O)*)CCN(CC(=O)O)CC1

Key:
isolated rat renal cells [1] = assay: Active versus passive cellular accumulation in isolated rat renal cells (37 °C vs low temperature); assay type: in vitro ADME; conditions: n = 4, Figure 6; for contribution of active accumulation to cell uptake: 37 °C (= 100%) vs low incubation temperature (2–4 °C)
Description: An experiment was arranged to test this cellular model's potential for investigating active membrane transport processes in radiopeptide renal accumulation. […] Using the same procedure as for the radiopeptides, we tested and expressed the uptake of the other studied compounds.

rat kidneys = conditions: cited from earlier work; for radiopeptide uptake in rat kidneys in vivo: radioactivity in the kidneys 60 min after i.v. administration, rats
Description: The data on radiopeptide cellular uptake were compared with already available data on radiopeptide renal retention in rats in vivo, which were previously published by our team.

isolated rat renal cells [2] = assay: Radiopeptide uptake in freshly isolated rat renal cells; conditions: 1 mL suspension 2.10^6/mL + 10 µL radiopeptide (1 µg/mL), 30 min, 37 °C, cells washed four times, gamma-counter
Description: Fresh rat renal cells were isolated from the kidney using the two-phase collagenase perfusion method described by Jones et al. [11]. Male Wistar rats weighing 270–330 g were used for the experiments. The rats were housed under standard conditions (tap water, standard diet, and a 12/12 h light–dark cycle). Animals were fasted for 18–24 h prior to experiments.
As a first step, rats were anesthetized (sodium pentobarbital, 50 mg/kg), the abdomen was opened, and the right renal artery and adjacent parts of the aorta were freed. Then, the right renal artery was cannulated via the aorta. Single-pass perfusion was conducted using oxygenated calcium-free Hanks’ buffer (pH 7.4) containing EGTA (0.5 mM) and Hepes (25 mM). The second perfusion phase was performed in a recirculation system with modified Hanks’ buffer containing CaCl2 (4 mM) and collagenase (0.10 % w/v) for 18–22 min. The kidneys were removed and dispersed in cold Krebs–Henseleit buffer with Hepes (25 mM) and bovine serum albumin (2% w/v). The resulting suspension was filtered and washed with Krebs–Henseleit buffer. Following centrifugation (3 min; 80 g; 4 °C), we used the trypan blue exclusion method to determine the number of cells in the suspension. […] As a result, the cell viability at the end of the 30 min incubation interval was >85%.
Standard incubations were conducted for 30 min at 37 °C using 1 mL of cell suspension containing 2.10^6/mL renal cells. The radiopeptide uptake was determined by mixing 1 mL of cell suspension and 10 µL of the radiopeptide (1 µg/mL). After incubation, the cells were washed four times and separated. The radioactivity of the cell fractions was measured as mentioned below.

LLC-PK1 cells = assay: Cellular uptake in LLC-PK1 cells; assay type: in vitro ADME, porcine; conditions: incubation time 30 min; Figure 5
Description: The cellular accumulation of two somatostatin receptor-specific analogs ([^111In]In -DOTA-TATE and [^111In]In -DOTA-NOC) was compared in two renal cellular models, OK cells and LLC-PK1 cells.

| contribution of active accumulation to cell uptake (isolated rat renal cells [1]) | Molecule | radiopeptide uptake in rat kidneys in vivo (rat kidneys) | radiopeptide uptake in isolated rat cells (In Vitro) (isolated rat renal cells [2]) | cellular accumulation in LLC-PK1 cells compared with OK cells (LLC-PK1 cells) | also measured |
| --- | --- | --- | --- | --- | --- |
| lowest contribution | O=C(O)C(S)C(S)C(=O)O (stereo not drawn) [[^99mTc]Tc-DMSA, dimercaptosuccinate, metal not drawn] | – | – | – | – |
| – | CSCC[C@H](NC(=O)[C@H](Cc1c[nH]c2ccccc12)NC(=O)CNC(=O)[C@H](Cc1ccc(O)cc1)NC(=O)[C@H](C)NC(=O)[C@@H](CCC(=O)O)NC(=O)CN1CCN(CC(=O)O)CCN(CC(=O)O)CCN(CC(=O)O)CC1)C(=O)N[C@@H](CC(=O)O)C(=O)N[C@@H](Cc1ccccc1)C(N)=O [[^111In]In-DOTA-MG11, metal not drawn] ({DOTA}-[dE]AYGWMDF-NH2) | 0.84 ± 0.35 [21] %D/g | 0.16 ± 0.15 %D/10^6 cells | – | – |
| – | DTPA-DGlu-Glu-Glu-Glu-Glu-Glu-Ala-Tyr-Gly-Trp-Met-Asp-Phe-NH2 [[^111In]In-DTPA-MG0] | – | – | – | retention in the rat kidney in vivo (in words) (rat kidneys; rat, in vivo, iv): relatively high |
| – | [DOTA^0, D-Phe^1, 1-Nal^3]-octreotide (disulfide) [[^111In]In-DOTA-NOC] | 2.84 ± 0.28 [19] %D/g | 0.75 ± 0.09 %D/10^6 cells | significantly higher | – |
| – | [DOTA^0, Tyr^3, Thr^8]-octreotide [[^111In]In-DOTA-TATE] | 3.08 ± 0.42 [19] %D/g | 0.36 ± 0.10 %D/10^6 cells | relatively similar in both cell lines | – |
| highest contribution | mercaptoacetylglycylglycylglycine [[^99mTc]Tc-MAG3] | – | – | – | accumulation at the low incubation temperature (isolated rat renal cells [1]; 2–4 °C, active processes blocked): negligible accumulation |
